The results in this text go back to patent publication US20050164370A1 (priority 2003, published 2005).

The target in assay [1] is T1, cytokinin receptor AHK2 (Arabidopsis thaliana, UniProt Q9C5U2).
T1 sequence (Q9C5U2 1-1176): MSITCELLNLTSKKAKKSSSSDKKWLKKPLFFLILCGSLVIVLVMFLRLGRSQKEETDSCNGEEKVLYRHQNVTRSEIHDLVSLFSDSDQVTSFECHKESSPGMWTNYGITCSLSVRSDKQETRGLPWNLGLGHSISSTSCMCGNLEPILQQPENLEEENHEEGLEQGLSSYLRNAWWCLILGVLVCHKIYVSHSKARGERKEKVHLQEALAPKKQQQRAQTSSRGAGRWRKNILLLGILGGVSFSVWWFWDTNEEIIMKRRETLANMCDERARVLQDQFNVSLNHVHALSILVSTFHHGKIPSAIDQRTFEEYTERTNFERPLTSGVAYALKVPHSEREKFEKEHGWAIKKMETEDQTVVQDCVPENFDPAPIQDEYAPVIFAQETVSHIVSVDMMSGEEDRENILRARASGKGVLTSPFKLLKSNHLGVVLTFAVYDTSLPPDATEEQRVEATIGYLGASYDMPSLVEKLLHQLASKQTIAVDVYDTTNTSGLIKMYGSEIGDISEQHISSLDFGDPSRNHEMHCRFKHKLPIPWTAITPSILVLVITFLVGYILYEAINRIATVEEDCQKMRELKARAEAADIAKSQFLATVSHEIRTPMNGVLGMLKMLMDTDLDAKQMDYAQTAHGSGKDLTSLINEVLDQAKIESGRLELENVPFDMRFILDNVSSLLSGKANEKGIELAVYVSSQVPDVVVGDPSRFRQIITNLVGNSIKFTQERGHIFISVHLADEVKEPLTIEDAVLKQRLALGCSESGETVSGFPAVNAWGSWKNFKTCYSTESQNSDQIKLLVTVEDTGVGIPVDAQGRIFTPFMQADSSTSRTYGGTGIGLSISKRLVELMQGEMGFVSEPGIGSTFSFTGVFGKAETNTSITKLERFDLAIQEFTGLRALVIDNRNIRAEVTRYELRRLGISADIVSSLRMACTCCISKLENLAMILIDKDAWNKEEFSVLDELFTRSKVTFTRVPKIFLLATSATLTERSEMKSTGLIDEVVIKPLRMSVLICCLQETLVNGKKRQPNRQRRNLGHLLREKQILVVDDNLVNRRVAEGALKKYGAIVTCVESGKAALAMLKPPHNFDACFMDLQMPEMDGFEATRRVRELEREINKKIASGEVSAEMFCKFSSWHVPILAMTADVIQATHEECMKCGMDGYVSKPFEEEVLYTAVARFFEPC
To be noted: TM182-AHK2, DOLU+Glu agar, 1 nM to 100 μM tested, 30° C. for 30 hours. How it is done: (§1) A culture solution 10 μl (about 800 clones of yeast) of the transformed cells TM182-CRE1, TM182-AHK2, TM182-AHK2Δ and TM182-AHK3 produced by the example 12 was spotted on DOLU+Glu agar media containing 10 μM of trans-zeatin and cultured at 30° C. for 30 hours. After incubation, the growth state of the transformed cells was observed and photographed by a digital camera.
(§2) Culture solutions of the transformed cells TM182-CRE1, TM182-AHK2Δ and TM182-AHK2 produced by the reference example 1 were spotted on DOLU+Glu agar media containing cytokinin in a variety of concentrations (1 nM, 10 nM, 100 nM, 1 μM, 10 μM, 100 μM) and cultured at 30° C. for 30 hours. After incubation, the growth state of the transformed cells was observed and photographed by a digital camera.

In assay [2] the target is cytokinin receptor CRE1 (Arabidopsis thaliana, UniProt Q9C5U0, S567G/T1018A). The conditions noted are these: TM182-CRE1, DOLU+Glu agar, 1 nM to 100 μM tested, 30° C. for 30 hours. The method, then: as §1, §2
Chain of cytokinin receptor CRE1 (Q9C5U0 24-1080 S567G/T1018A): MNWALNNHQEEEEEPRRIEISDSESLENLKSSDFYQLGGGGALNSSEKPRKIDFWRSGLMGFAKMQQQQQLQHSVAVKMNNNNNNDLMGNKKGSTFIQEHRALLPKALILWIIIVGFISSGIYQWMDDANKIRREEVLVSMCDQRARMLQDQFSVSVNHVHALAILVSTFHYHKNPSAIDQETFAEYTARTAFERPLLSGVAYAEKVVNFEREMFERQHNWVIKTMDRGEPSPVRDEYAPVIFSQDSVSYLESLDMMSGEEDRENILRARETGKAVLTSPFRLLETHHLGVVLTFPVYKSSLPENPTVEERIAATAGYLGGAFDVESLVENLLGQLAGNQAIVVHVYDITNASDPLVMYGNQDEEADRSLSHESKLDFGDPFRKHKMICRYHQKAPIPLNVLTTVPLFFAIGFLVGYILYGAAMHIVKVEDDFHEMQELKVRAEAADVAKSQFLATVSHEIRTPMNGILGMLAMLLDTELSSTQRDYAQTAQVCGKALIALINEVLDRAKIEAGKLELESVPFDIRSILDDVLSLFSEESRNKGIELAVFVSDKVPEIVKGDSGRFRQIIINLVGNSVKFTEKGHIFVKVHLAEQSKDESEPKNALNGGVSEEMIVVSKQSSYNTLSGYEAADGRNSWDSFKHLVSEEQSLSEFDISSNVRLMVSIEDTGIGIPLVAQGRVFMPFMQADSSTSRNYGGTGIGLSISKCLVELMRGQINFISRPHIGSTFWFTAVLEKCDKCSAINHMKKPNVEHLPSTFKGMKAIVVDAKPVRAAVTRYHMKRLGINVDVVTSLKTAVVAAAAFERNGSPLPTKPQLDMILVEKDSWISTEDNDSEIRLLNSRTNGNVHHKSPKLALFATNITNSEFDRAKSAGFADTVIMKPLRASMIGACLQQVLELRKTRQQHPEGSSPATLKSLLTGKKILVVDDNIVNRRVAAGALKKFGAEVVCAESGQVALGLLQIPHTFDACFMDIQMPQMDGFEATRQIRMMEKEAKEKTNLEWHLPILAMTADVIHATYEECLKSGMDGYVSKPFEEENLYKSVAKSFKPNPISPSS
For assay [3], the target named is T2, cytokinin receptor AHK2Δ (Arabidopsis thaliana, UniProt Q9C5U2).
T2 sequence (Q9C5U2 196-1176): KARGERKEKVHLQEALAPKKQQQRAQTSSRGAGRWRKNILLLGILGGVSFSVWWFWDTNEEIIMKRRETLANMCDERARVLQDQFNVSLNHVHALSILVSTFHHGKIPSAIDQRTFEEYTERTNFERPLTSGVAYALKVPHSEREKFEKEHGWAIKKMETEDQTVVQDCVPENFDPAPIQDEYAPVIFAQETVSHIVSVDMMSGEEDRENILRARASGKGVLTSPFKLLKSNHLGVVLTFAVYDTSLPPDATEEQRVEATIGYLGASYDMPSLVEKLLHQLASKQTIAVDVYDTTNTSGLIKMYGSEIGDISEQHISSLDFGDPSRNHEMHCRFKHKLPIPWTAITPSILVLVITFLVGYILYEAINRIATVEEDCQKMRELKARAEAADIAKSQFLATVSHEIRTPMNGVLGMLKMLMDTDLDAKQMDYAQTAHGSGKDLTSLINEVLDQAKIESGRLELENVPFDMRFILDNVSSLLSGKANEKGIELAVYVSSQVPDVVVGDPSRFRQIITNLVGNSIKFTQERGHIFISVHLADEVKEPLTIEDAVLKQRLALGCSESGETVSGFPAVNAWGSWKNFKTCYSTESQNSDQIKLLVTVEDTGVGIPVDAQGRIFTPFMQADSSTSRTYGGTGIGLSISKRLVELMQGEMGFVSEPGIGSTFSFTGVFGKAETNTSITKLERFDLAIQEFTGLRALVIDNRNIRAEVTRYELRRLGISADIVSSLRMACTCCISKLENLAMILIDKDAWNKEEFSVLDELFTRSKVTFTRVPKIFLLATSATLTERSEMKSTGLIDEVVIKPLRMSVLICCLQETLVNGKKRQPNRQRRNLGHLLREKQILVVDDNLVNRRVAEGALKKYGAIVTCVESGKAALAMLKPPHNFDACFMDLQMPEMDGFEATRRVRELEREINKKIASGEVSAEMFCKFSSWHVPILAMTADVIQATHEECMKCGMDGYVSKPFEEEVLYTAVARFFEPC
The conditions noted are these: TM182-AHK2Δ, DOLU+Glu agar, 1 nM to 100 μM tested, 30° C. for 30 hours. The method, then:
as §1, §2

Take `C/C(=C/CNc1ncnc2nc[nH]c12)CO` [cis-zeatin]: the “lowest observed supply concentration in which the transformed cells could be grown” value was 10 µM in assay [1], “no growth” in assay [2] and 1 µM in assay [3].
